Some test systems named below: BT-549 breast; DLD-1 colon; M19-MEL melanoma; DMS 273 small cell lung; LXFL 529 NSCLC; HOP-18 NSCLC; XF 498 CNS; MDA-N.
Common to all, as to assay: DTP human tumour cell line panel, 48 h

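Five concentrations, 48 hours, 96-well plates. The concentration for 50% growth inhibition is given as GI50. TGI marks complete inhibition of growth.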

As to `NC1=C(Cl)C(=O)c2ccc(S(N)(=O)=O)cc2C1=O`, in the assay on BT-549 breast, the GI50 (in general, the concentration giving 50% growth inhibition) is 0.171 µM and the TGI (as a rule, the concentration giving total growth inhibition) is 0.314 µM.

With `CCc1ccccc1NC(=O)CCc1n[nH]c(=S)o1`, the TGI in the assay on DLD-1 colon, in the assay with M19-MEL melanoma, with DMS 273 small cell lung, in the assay on LXFL 529 NSCLC and with HOP-18 NSCLC was greater than 100 µM in each case.

Turning to `COc1ccc(-c2cnc3ccnn3c2-c2cc(OC)c(OC)c(OC)c2)cc1`, in the assay with BT-549 breast, the GI50 is 12.2 µM and the TGI was found to be 95.4 µM.

`NC(=O)N/N=C(\C(=O)C(=O)Nc1ccc(Cl)c(C(F)(F)F)c1)c1nc2ccc(C(=O)c3ccccc3)cc2[nH]c1=O`: the TGI in the assay with M19-MEL melanoma is greater than 100 µM; in the assay on XF 498 CNS, 64.1 µM; in the assay on DMS 273 small cell lung, greater than 100 µM; in the assay with HOP-18 NSCLC, greater than 100 µM.

In the case of `c1cc(OCCN2CCCCCC2)ccc1CNc1ccc2nc(CCC3CCCCC3)[nH]c2c1`, in the assay with BT-549 breast, the GI50 is 1.83 µM and the TGI came to 5.54 µM.

As for `CCC(C)OC(=O)C1C2CCC(O2)C1C(=O)O` (stereo unspecified), the TGI is greater than 77.7 µM with DLD-1 colon; greater than 100 µM with M19-MEL melanoma; greater than 60.1 µM in the assay with DMS 273 small cell lung; greater than 100 µM in the assay with LXFL 529 NSCLC; greater than 100 µM with HOP-18 NSCLC.

For `Cc1cccc2c(N=Nc3ccc(S(N)(=O)=O)cc3)c(O)[nH]c12`, in the assay with BT-549 breast, the GI50 is greater than 25 µM and the TGI is greater than 25 µM.

For the compound `Oc1ccc(CNCc2ccccc2)c2cccnc12`, the total growth inhibition concentration (TGI) in the assay on BT-549 breast and with MDA-N was greater than 100 µM in each case.

Take `O=C1/C(=C\C(Cl)=C/c2ccc([N+](=O)[O-])cc2)SC(=S)N1CCc1ccc(O)cc1`: in the assay on BT-549 breast, the GI50 is 0.332 µM and the TGI worked out at 1.28 µM.

With `Clc1cc(Cl)c(Cl)c(-c2nc(-c3cccnc3)cs2)c1`, in the assay on BT-549 breast, the GI50 is 20.6 µM and the TGI was 70.2 µM.

Regarding `C=C1C(=O)O[C@@H]2C(=O)[C@@H](C)[C@@H]3C=CC(=O)[C@@]3(C)[C@@H](OC(=O)/C(C)=C\C)[C@H]12`, the results for the TGI with BT-549 breast and with MDA-N were 2.01 µM and 2.99 µM, respectively.

On to `Cc1cc(O)c(C(c2cccnc2)c2c(O)cc(C)[nH]c2=O)c(=O)[nH]1`, for which the TGI in the assay on BT-549 breast and in the assay on MDA-N was greater than 100 µM throughout.

Regarding `S=c1nc2[nH]ncc2c(N/N=C/c2ccccc2)[nH]1`, in the assay with BT-549 breast, the GI50 is greater than 100 µM and the TGI is greater than 100 µM.

Consider `Cc1c2c(nn1C(=O)c1nn(-c3ccc(Cl)cc3)cc1O)-c1ccccc1CC2`, for which, in the assay on BT-549 breast, the GI50 is 0.0306 µM and the TGI is greater than 100 µM.

On to `O=C1C(=O)N(C(=O)c2ccc(Cl)c(Cl)c2)c2ccc(Cl)cc21`, for which the TGI was greater than 100 µM with DLD-1 colon; 39.9 µM with M19-MEL melanoma; greater than 100 µM in the assay with DMS 273 small cell lung; greater than 100 µM in the assay with LXFL 529 NSCLC; greater than 100 µM in the assay with HOP-18 NSCLC.

Take `O=C(Nc1ccccc1)Nc1cccc(-n2cc(-c3ccncc3)c(-c3ccc(O)c(Cl)c3)n2)c1`: in the assay with BT-549 breast, the GI50 was 3.29 µM and the TGI was 12.7 µM.

Regarding `O=[N+]([O-])c1cc(CCl)ccc1CCl`, the results for the total growth inhibition concentration (TGI) in the assay on BT-549 breast and in the assay with MDA-N were 11.1 µM and 4.23 µM, respectively.

As for `N#CC(=S)Nc1ccc(Cl)c(Cl)c1`, the values for the TGI with BT-549 breast and in the assay on MDA-N were greater than 55.1 µM and 88.3 µM, respectively.

Turning to `COc1cc(C#N)cc(OC)c1OCCOCCOc1c(OC)cc(C#N)cc1OC`, in the assay with BT-549 breast, the GI50 is 25.3 µM and the TGI is 73.2 µM.

`O=c1cc(-c2ccc(Cl)cc2)[nH]c2ncccc12` showed a TGI in the assay with BT-549 breast greater than 100 µM. In the assay with MDA-N, the GI50 was 8.26 µM and the TGI worked out at 26.1 µM.

Consider `CCOC(=O)/C(=C/c1ccc([N+](=O)[O-])cc1)C(=O)c1ccccc1`, for which, in the assay with BT-549 breast, the GI50 is 2.04 µM and the TGI worked out at 4.37 µM.

Regarding `ClC1CCC2OOC1O2` (stereo unspecified), the TGI in the assay on M19-MEL melanoma and in the assay on DMS 273 small cell lung was greater than 100 µM each time.

Regarding `Cn1ncc2c(/N=C/c3cccs3)[nH]c(=S)nc21`, in the assay on BT-549 breast, the GI50 was 33.2 µM and the TGI is greater than 91.3 µM.

For the compound `O=C1N=C(c2ccccc2)OC1C(=O)c1ccccc1` (stereo unspecified), the TGI in the assay with BT-549 breast and with MDA-N was greater than 100 µM throughout.

As for `COc1ccc(/C=C2\CN(Cc3cn(CCCNc4ccnc5cc(Cl)ccc45)nn3)C/C(=C\c3ccc(OC)c(OC)c3)C2=O)cc1OC`, in the assay on BT-549 breast, the GI50 was 1.81 µM and the TGI came to 3.79 µM.

On to `NC(CNO)C(=O)O` (stereo unspecified), for which the TGI in the assay with BT-549 breast and in the assay on MDA-N was greater than 100 µM throughout.

With `Cc1ccc(S(=O)(=O)/N=c2\ssc(Nc3ccccc3)c2Cl)cc1`, in the assay with BT-549 breast, the GI50 was 5.27 µM and the TGI is 17 µM.

Take `C[C@@H](CO)OCOCc1ccccc1`: the TGI with DLD-1 colon, with M19-MEL melanoma, in the assay on XF 498 CNS, in the assay on DMS 273 small cell lung and in the assay on LXFL 529 NSCLC was greater than 100 µM in each case.

`ClCc1ccc(-c2ccc(Cn3cnc4c(Cl)nc(Cl)nc43)cc2)cc1`: in the assay on BT-549 breast, the GI50 is 3.71 µM and the TGI amounted to 15.5 µM.

Turning to `COC(=O)C(C)NP(=O)(OCc1ccc(Cn2cnc3c(=O)[nH]c(N)nc32)cc1)Oc1ccccc1` (stereo unspecified), in the assay with BT-549 breast, the GI50 is greater than 100 µM and the TGI was greater than 100 µM.

On to `O=C(Nc1n[nH]c2nc(-c3ccco3)ccc12)C1CC1`, for which, in the assay with BT-549 breast, the GI50 is greater than 25 µM and the TGI is greater than 25 µM.

Take `Cc1n[nH]c(=S)n1/N=C/c1ccc(F)c(Oc2ccccc2)c1`: in the assay with BT-549 breast, the GI50 was 63.7 µM and the TGI is greater than 100 µM.

For `CCCc1cc2cc(-n3nc(C)c4c3CC(C)(C)CC4=O)cc(NC3CCC(O)CC3)c2c(=O)[nH]1` (stereo unspecified), in the assay with BT-549 breast, the GI50 is 0.959 µM and the TGI was greater than 100 µM.

Regarding `COc1ccc(-c2cc(=O)c3c(OC)c(OC)c(OC)c(OC)c3o2)cc1OC`, the concentration for total growth inhibition (TGI) in the assay on BT-549 breast and in the assay with MDA-N was greater than 100 µM throughout.

On to `Nc1ncnc2c1nc(-c1ccccc1)n2C1OC(CO)C(O)C1O` (stereo unspecified), for which the TGI with BT-549 breast and in the assay on MDA-N was greater than 100 µM in each case.

For the compound `O=C(/C=C\c1cccc2ccccc12)c1cccs1`, the TGI in the assay on DLD-1 colon turned out to be 16.9 µM; with M19-MEL melanoma it was 22.4 µM; in the assay on DMS 273 small cell lung it was 17.9 µM; in the assay on LXFL 529 NSCLC it was 22.9 µM; in the assay on HOP-18 NSCLC it was 21.8 µM.

For the compound `CCOC(=O)c1ccc(N(CCOS(C)(=O)=O)CCOS(C)(=O)=O)cc1C`, the GI50 was 34.1 µM with BT-549 breast and 57.8 µM in the assay with MDA-N. Moreover, the TGI in the assay with BT-549 breast and in the assay with MDA-N was greater than 100 µM throughout.

For `COC(=O)/C(C#N)=C1\CCC(O)N1C` (stereo unspecified), the total growth inhibition concentration (TGI) with DLD-1 colon, with XF 498 CNS, with LXFL 529 NSCLC and in the assay with HOP-18 NSCLC was greater than 100 µM in each case.

For `COc1cc(/C=C2\CN(C)C/C(=C\c3cc(OC)c(OC)c(OC)c3)C2=O)cc(OC)c1OC`, in the assay with BT-549 breast, the GI50 is 0.295 µM and the TGI stood at 0.923 µM.

`CC#CS(=O)(=O)c1ccccc1` showed a TGI in the assay on BT-549 breast of 20.8 µM.

Regarding `C=C1C(=O)O[C@H]2[C@H]1CC/C(Cn1cc(Cn3ccc4ccccc43)nn1)=C\CC[C@@]1(C)O[C@@H]21`, in the assay on BT-549 breast, the GI50 is 1.38 µM and the TGI was found to be 2.69 µM.

As for `CN[C@]12CC3(C=CC(=O)C=C3)O[C@@]1(Cc1ccc(OC)cc1)N(C)C(=O)N2`, in the assay with BT-549 breast, the GI50 is 1.52 µM and the TGI worked out at 4.22 µM.

On to `O=C1OCc2c1cc(F)cc2[N+](=O)[O-]`, for which, in the assay with BT-549 breast, the GI50 was greater than 100 µM and the total growth inhibition concentration (TGI) was greater than 100 µM.

On to `O=C(Nc1nccs1)c1cc2c(cc1Cl)Sc1nccn1S2(=O)=O`, for which, in the assay with BT-549 breast, the GI50 was 18.2 µM and the TGI stood at 35.4 µM. Also, in the assay on MDA-N, the GI50 is 17.9 µM and the concentration for total growth inhibition (TGI) is 33.4 µM.

In the case of `COc1cc(/C=C/C(=O)c2ccc(Nc3ncnc4ccccc34)cc2)cc(OC)c1`, in the assay with BT-549 breast, the GI50 is 3.34 µM and the TGI turned out to be 11.9 µM.

On to `C=C1C(=O)O[C@H]2[C@H]1CC/C(COC(=O)CCCCCCCCC(=O)OC/C1=C/CC[C@@]3(C)O[C@H]3[C@H]3OC(=O)C(=C)[C@@H]3CC1)=C\CC[C@@]1(C)O[C@@H]21`, for which, in the assay with BT-549 breast, the GI50 was 1.54 µM and the TGI came to 3.22 µM.

`COc1ccc(/C(C)=C(\c2ccc(Cl)cc2)c2ccc(OCCN3CCCC3)cc2)cc1F`: in the assay with BT-549 breast, the GI50 is 3.24 µM and the TGI is 6.74 µM.

Take `O=C1C(=O)c2ccccc2-c2ccccc21`: in the assay with BT-549 breast, the GI50 was 1.66 µM and the TGI was 3.07 µM.

`COc1ccc(C(c2ccc(C(C)C)cc(=O)c2O)c2ccc3cccnc3c2O)cc1` (stereo unspecified): the TGI worked out at 15.3 µM with DLD-1 colon; 2.54 µM with M19-MEL melanoma; 16.4 µM with XF 498 CNS; 2.08 µM with DMS 273 small cell lung; 15.7 µM with LXFL 529 NSCLC.

On to `Cc1cc(C)c(O)c(Cc2cccc(Cc3cc(C)cc(C)c3O)c2O)c1`, for which the TGI in the assay with BT-549 breast and in the assay on MDA-N was greater than 100 µM each time.

In the case of `COc1cc(-c2cc(=O)c3ccccc3o2)ccc1N`, the TGI with M19-MEL melanoma, with XF 498 CNS, in the assay on DMS 273 small cell lung, in the assay with LXFL 529 NSCLC and in the assay with HOP-18 NSCLC was greater than 100 µM in each case.

Source of the values: PubChem BioAssay (NCI).
